Assay results reported in publication PMC12638379, “An innovative approach to development of new pyrazolylquinolin-2-one hybrids as dual EGFR and BRAF^V600E inhibitors” (Molecular Diversity, 2025).
Like-named read-outs stand apart in the source and are kept apart here.

Columns and labels:
[1] = MTT cytotoxicity on normal cell line WI-38; conditions: human, WI-38 normal cells, % viability
[2] = tested on: breast cancer (T47D) cell line; experiment: MTT antiproliferative assay, T-47D
Experimental: The median inhibitory concentration (IC50) and GI50 (average IC50) against the three cancer cell lines were calculated. See Appendix B.
Cells were cultured using DMEM (Invitrogen/Life Technologies) supplemented with 10% FBS (Hyclone,), 10 ug/ml of insulin (Sigma), and 1% penicillin-streptomycin. Plate cells (cells density 1.2 – 1.8 × 10,000 cells/well) in a volume of 100µl complete growth medium + 100 ul of the tested compound per well in a 96-well plate for 24 hours before the MTT assay. In atypical experiment, one hundred micro liters of serial 10-fold diluted sterile tested compounds were added to final concentrations of […] using culture media as negative control. After 24 h of culture incubation and supernatants discarded. HOP-92 lung, MOLT-4 leukemia, and T-47D breast cell lines were trypsinized and washed with Ca2/Mg2 free PBS (pH 7.2). we removed cultures from incubator into laminar flow hood or other sterile work area. […] Each test should include a blank containing complete medium without cells. […] Add reconstituted MTT in an amount equal to 10% of the culture medium volume. Return cultures to incubator for 2-4 hours depending on cell type and maximum cell density. […] Spectrophotometrically absorbance was measured at a wavelength of 570 nm. Measure the background absorbance of multiwell plates at 690 nm and subtract from the […] measurement. Results from all experiments were recorded and the percentage of viable cells was calculated.

[3] = molecular target: T1, EGFR (Homo sapiens, UniProt P00533); experiment: EGFR inhibitory assay; assay type: biochemical; conditions: for %inh: EGFR, unit not given
T1 construct: EGFR cytoplasmic domain (EGFR-CD, amino acids 645–1186); His6 (N); made in house; host or cells: Sf-9 insect cells (baculovirus)

[4] = tested on: leukemia (MOLT-4) cell line; experiment: MTT antiproliferative assay, MOLT-4; assay type: cell-based, human
Experimental: (§1) After 24 h of culture incubation and supernatants discarded.

[5] = tested on: lung cancer (HOP-92) cell line; experiment: MTT antiproliferative assay, HOP-92; assay type: cell-based, human
Experimental: […]. […] See Appendix B.
as §1

[6] = molecular target: BRAF^V600E (Homo sapiens, UniProt P15056, V600E); experiment: BRAF^V600E inhibitory assay (B-Raf (V600E) Kinase Assay); assay type: biochemical; conditions: read-out: BRAF^V600E inhibition IC50 ± SEM
[7] = tested on: NCI 60 cancer cell lines; experiment: NCI anticancer screening over a panel of 60 cancer cells, single concentration 10 µM; assay type: cell-based, human; conditions: Homo sapiens, read-out: % Growth Inhibition (GI %)
In short: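 Primary single-dose screen at 10 µM over the NCI panel of 60 human tumour cell lines (leukemia, CNS, lung, colon, kidney, ovary, breast, prostate). The standard NCI Developmental Therapeutics Program protocol was used.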

T1 sequence (P00533 669-1210): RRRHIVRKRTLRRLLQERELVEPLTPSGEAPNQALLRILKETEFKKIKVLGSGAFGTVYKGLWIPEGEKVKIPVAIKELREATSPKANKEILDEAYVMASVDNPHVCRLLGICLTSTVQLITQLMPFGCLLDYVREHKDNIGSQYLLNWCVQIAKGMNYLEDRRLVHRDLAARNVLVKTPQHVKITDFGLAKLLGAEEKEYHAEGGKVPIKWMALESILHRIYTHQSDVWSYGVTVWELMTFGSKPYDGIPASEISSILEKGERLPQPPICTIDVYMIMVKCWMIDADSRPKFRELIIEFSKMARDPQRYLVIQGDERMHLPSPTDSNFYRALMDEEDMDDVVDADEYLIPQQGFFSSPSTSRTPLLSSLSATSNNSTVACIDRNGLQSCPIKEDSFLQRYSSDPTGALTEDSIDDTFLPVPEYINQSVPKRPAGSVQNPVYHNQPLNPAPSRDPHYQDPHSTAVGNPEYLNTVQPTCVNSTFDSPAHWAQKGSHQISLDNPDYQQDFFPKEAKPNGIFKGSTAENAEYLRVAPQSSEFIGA
Chain of BRAF^V600E (P15056 whole entry V600E): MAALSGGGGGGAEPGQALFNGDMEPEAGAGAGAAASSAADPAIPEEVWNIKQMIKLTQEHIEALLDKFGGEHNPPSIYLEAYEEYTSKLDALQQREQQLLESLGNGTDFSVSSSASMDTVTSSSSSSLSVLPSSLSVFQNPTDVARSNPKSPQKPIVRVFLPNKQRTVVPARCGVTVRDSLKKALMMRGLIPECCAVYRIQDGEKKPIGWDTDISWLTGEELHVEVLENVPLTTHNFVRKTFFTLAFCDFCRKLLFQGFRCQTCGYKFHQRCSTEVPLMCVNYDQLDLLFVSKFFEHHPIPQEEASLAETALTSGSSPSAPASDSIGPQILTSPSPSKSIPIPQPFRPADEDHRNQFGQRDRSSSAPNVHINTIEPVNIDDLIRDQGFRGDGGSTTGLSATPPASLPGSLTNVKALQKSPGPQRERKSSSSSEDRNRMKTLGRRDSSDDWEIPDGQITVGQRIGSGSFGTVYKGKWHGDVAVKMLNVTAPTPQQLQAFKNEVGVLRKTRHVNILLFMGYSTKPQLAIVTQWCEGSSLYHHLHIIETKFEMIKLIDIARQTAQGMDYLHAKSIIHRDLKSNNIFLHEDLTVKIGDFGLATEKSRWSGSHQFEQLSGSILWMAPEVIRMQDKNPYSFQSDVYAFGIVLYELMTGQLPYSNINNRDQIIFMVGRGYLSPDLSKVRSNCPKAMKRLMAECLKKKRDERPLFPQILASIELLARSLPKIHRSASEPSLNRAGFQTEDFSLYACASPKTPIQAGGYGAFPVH

C/C(=N\Nc1ccc(C(=O)O)cc1)c1cnn(-c2cc(=O)[nH]c3ccccc23)c1C [Compound 4f, (E)-4-(2-(1-(5-methyl-1-(2-oxo-1,2-dihydroquinolin-4-yl)-1H-pyrazol-4-yl)ethylidene) hydrazineyl)benzoic acid]
viability at 24 h, 0.4 µM ([1]; WI38, 0.4uM (log conc. -0.41)): 80% | viability at 24 h, 1.6 µM ([1]; WI38, 1.6uM (log conc. 0.19)): 74.5% | viability at 24 h, 6.3 µM ([1]; WI38, 6.3uM (log conc. 0.8)): 65.4% | viability at 24 h, 25 µM ([1]; WI38, 25uM (log conc. 1.4)): 54.9% | viability at 24 h, 100 µM ([1]; WI38, 100uM (log conc. 2)): 41.6% | viability at 0.4 µM ([2]; Homo sapiens, T47D, T-47D, MTT, 0.4uM): 78.6% | viability at 1.6 µM ([2]; Homo sapiens, T47D, T-47D, MTT, 1.6uM): 72.1% | viability at 6.3 µM ([2]; Homo sapiens, T47D, T-47D, MTT, 6.3uM): 61.4% | viability at 25 µM ([2]; Homo sapiens, T47D, T-47D, MTT, 25uM): 50.1% | viability at 100 µM ([2]; Homo sapiens, T47D, T-47D, MTT, 100uM): 41.1% | IC50 ([2]; Homo sapiens, T47D, read-out: Antiproliferative activity IC50 ± SEM, T-47D, MTT): 28.6 ± 0.99 µM | % viability ([2]; T-47D, MTT, 1.6uM, listed as ws6, 1.6 µM): 72.1271% | % viability ([2]; T-47D, MTT, 6.3uM, listed as ws6, 6.3 µM): 61.3692% | % viability ([2]; T-47D, MTT, 100uM, listed as ws6, 100 µM): 41.0758% | %inh ([3]; conc 0.01 (log -2)): 10.6% | %inh ([3]; conc 0.1 (log -1)): 26% | %inh ([3]; conc 1 (log 0)): 61.8% | %inh ([3]; conc 10 (log 1)): 80.6% | %inh ([3]; conc 100 (log 2)): 92.1% | IC50 ([3]; read-out: EGFR inhibition IC50 ± SEM): 0.64 ± 0.023 µM | viability at 0.4 µM ([4]; Homo sapiens, MOLT-4, MOLT-4, MTT, 0.4uM): 70.3% | viability at 1.6 µM ([4]; Homo sapiens, MOLT-4, MOLT-4, MTT, 1.6uM): 59.6% | viability at 6.3 µM ([4]; Homo sapiens, MOLT-4, MOLT-4, MTT, 6.3uM): 58.5% | viability at 25 µM ([4]; Homo sapiens, MOLT-4, MOLT-4, MTT, 25uM): 48.1% | viability at 100 µM ([4]; Homo sapiens, MOLT-4, MOLT-4, MTT, 100uM): 39.1% | IC50 ([4]; Homo sapiens, MOLT-4, MTT, read-out: Antiproliferative activity IC50 ± SEM, MOLT-4): 16.3 ± 0.65 µM | % viability ([4]; MOLT-4, MTT, 0.4uM, listed as ws6, 0.4 µM): 70.3059% | % viability ([4]; MOLT-4, MTT, 1.6uM, listed as ws6, 1.6 µM): 59.5561% | % viability ([4]; MOLT-4, MTT, 6.3uM, listed as ws6, 6.3 µM): 58.5483% | % viability ([4]; MOLT-4, MTT, 100uM, listed as ws6, 100 µM): 39.1122% | % viability ([5]; HOP-92, MTT, 0.4uM, listed as ws6, 0.4 µM): 83.3554% | % viability ([5]; HOP-92, MTT, 1.6uM, listed as ws6, 1.6 µM): 74.4032% | % viability ([5]; HOP-92, MTT, 6.3uM, listed as ws6, 6.3 µM): 64.3236% | % viability ([5]; HOP-92, MTT, 100uM, listed as ws6, 100 µM): 35.3448% | viability at 0.4 µM ([5]; Homo sapiens, HOP-92, HOP-92, MTT, 0.4uM, read-out: % viability): 83.4% | viability at 1.6 µM ([5]; Homo sapiens, HOP-92, HOP-92, MTT, 1.6uM, read-out: % viability): 74.4% | viability at 6.3 µM ([5]; Homo sapiens, HOP-92, HOP-92, MTT, 6.3uM, read-out: % viability): 64.3% | viability at 25 µM ([5]; Homo sapiens, HOP-92, HOP-92, MTT, 25uM, read-out: % viability): 51.8% | viability at 100 µM ([5]; Homo sapiens, HOP-92, HOP-92, MTT, 100uM, read-out: % viability): 35.3% | IC50 ([5]; Homo sapiens, HOP-92, MTT, read-out: Antiproliferative activity IC50 ± SEM, HOP-92): 24.9 ± 1.9 µM | IC50 [6]: 0.41 ± 0.016 µM | inhibition at 10 µM ([7]; 786-0, Renal cancer 786-0, 10 μM): < 5% | inhibition at 10 µM ([7]; A498, Renal cancer A498, 10 μM): < 5% | inhibition at 10 µM ([7]; A549, Non-small cell lung cancer A549/ATCC, 10 μM): < 5% | inhibition at 10 µM ([7]; ACHN, Renal cancer ACHN, 10 μM): 5.83% | inhibition at 10 µM ([7]; BT-549, Breast cancer BT-549, 10 μM): < 5% | inhibition at 10 µM ([7]; CAKI-1, Renal cancer CAKI-1, 10 μM): 16.1% | inhibition at 10 µM ([7]; CCRF-CEM, Leukemia CCRF-CEM, 10 μM): < 5% | inhibition at 10 µM ([7]; COLO 205, Colon cancer COLO 205, 10 μM): < 5% | inhibition at 10 µM ([7]; DU-145, Prostate cancer DU-145, 10 μM): < 5%
